Source: patent US6894050B2, “5-HT receptor ligands and uses thereof” (Pfizer Inc., priority 2001, dated 2005)
Where a name gives a salt, the structure may show the parent alone. Blank lines part the entries; values can stand above or below the molecule they belong to.

Tests used:
[1] = molecular target: T1, 5-HT2c receptor (5-HT2c expressed NIH 3T3 cells) (UniProt P28335); assay: Functional Assay (FLIPR calcium fluorescence, Fluo 4-AM); format: cell-based
T1 sequence (P28335 1-458): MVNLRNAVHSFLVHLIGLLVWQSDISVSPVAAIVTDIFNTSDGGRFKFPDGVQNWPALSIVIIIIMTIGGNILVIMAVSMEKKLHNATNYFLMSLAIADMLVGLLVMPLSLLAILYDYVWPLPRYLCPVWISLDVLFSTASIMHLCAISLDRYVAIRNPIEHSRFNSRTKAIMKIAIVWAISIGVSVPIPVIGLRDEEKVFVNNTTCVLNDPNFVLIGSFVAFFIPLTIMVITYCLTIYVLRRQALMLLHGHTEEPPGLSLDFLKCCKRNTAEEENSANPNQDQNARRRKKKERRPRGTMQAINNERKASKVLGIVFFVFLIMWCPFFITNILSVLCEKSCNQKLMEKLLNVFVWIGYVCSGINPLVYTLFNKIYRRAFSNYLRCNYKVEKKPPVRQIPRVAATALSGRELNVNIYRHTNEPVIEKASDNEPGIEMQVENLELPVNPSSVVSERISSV
Procedure: […] Forty eight (48) hrs later the cells were loaded with the calcium sensitive dye, Fluo 4-AM (4 μM dissolved in DMSO containing pluronic acid) in serum free DMEM in the presence of probenicid (2.5 mM) for 75 minutes at 37° C. in a CO2 incubator. Unincorporated dye was removed by washing 3 times with a HEPES-buffered saline containing probenicid (2.5 mM) using a Skatron™ cell washer (final volume 30 μL).
Test compound additions were made simultaneously to all 384 wells after 20 seconds of baseline recording. Concentration-response curves were generated using Graphpad Prism™ (available from GraphPad Software, Inc., San Diego, Calif.) and agonist efficacies were generated as % of the response to 10 μM 5-HT (considered as 100%).

[2] = test system: anaesthetised rabbit model of sexual arousal; assay: Pelvic nerve-stimulated genital blood flow in the anaesthetised rabbit model of sexual arousal; format: in vivo; conditions: 5 mg/kg s.c.; for Compound-induced potentiation of stimulated vaginal blood flow: %
Procedure: Female New Zealand rabbits (˜2.5 kg) were pre-medicated with a combination of Medetomidine (Domitor®) 0.5 ml/kg intramuscularly (i.m.), and Ketamine (Vetalar®) 0.25 ml/kg i.m. whilst maintaining oxygen intake via a face mask. The rabbits were tracheotomised using a Portex™ uncuffed endotracheal tube 3 ID (internal diameter), connected to ventilator and maintained at a ventilation rate of 30-40 breaths per minute, with an approximate tidal volume of 18-20 ml, and a maximum airway pressure of 10 cm H2O. Anaesthesia was then switched to Isoflurane® and ventilation continued with O2 at 2 l/min. The right marginal ear vein was cannulated using a 23G or 24G catheter, and Lactated Ringer solution perfused at 0.5 ml/min. The rabbit was maintained at 3% Isoflurane® during invasive surgery, dropping to 2% for maintenance anaesthesia.
The left groin area of the rabbit was shaved and a vertical incision was made approximately 5 cm in length along the thigh. The femoral vein and artery were exposed, isolated and then cannulated with a PVC catheter (17G) for the infusion of drugs and compounds. Cannulation was repeated for the femoral artery, inserting the catheter to a depth of 10 cm to ensure that the catheter reached the abdominal aorta. This arterial catheter was linked to a Gould system to record blood pressure. Samples for blood gas analysis were also taken via the arterial catheter. Systolic and diastolic pressures were measured, and the mean arterial pressure calculated using the formula (diastolic×2+systolic)÷3. Heart rate was measured via the pulse oxymeter and Po-ne-mah data acquisition software system (Ponemah Physiology Platform, Gould Instrument Systems Inc).
A ventral midline incision was made into the abdominal cavity. The incision was about 5 cm in length just above the pubis. The fat and muscle was bluntly dissected away to reveal the hypogastric nerve which runs down the body cavity. It was essential to keep close to the side curve of the pubis wall in order to avoid damaging the femoral vein and artery, which lie above the pubis. The sciatic and pelvic nerves lie deeper and were located after further dissection on the dorsal side of the rabbit. Once the sciatic nerve is identified, the pelvic nerve was easily located. The term pelvic nerve is loosely applied; anatomy books on the subject fail to identify the nerves in sufficient detail. However, stimulation of the nerve causes an increase in vaginal and clitoral blood flow, and innervation of the pelvic region. The pelvic nerve was freed away from surrounding tissue and a Harvard bipolar stimulating electrode was placed around the nerve. The nerve was slightly lifted to give some tension, then the electrode was secured in position. Approximately 1 ml of light paraffin oil was placed around the nerve and electrode. This acts as a protective lubricant to the nerve and prevents blood contamination of the electrode. The electrode was connected to a Grass S88 Stimulator. The pelvic nerve was stimulated using the following parameters:—5V, pulse width 0.5 ms, duration of stimulus 10 seconds and a frequency range of 2 to 16 Hz. Reproducible responses were obtained when the nerve was stimulated every 15-20 minutes. A frequency response curve was determined at the start of each experiment in order to determine the optimum frequency to use as a sub-maximal response, normally 4 Hz. A ventral midline incision was made, at the caudal end of the pubis, to expose the pubic area. Connective tissue was removed to expose the tunica of the clitoris, ensuring that the wall was free from small blood vessels. The external vaginal wall was also exposed by removing any connective tissue. One laser Doppler flow probe was inserted 3 cm into the vagina, so that half the probe shaft was still visible. A second probe was positioned so that it lay just above the external clitoral wall. The position of these probes was then adjusted until a signal was obtained. […]

SMILES: C[C@@H](Oc1cncc(N2CCNCC2)n1)c1ccccc1 [Example 1-AE, 6′-[(1R)-Phenyl-ethoxy]-3,4,5,6-tetrahydro-2H-[1,2′]bipyrazinyl]
- functional behaviour at 5-HT2c [1]: acted as an antagonist

SMILES: Cl.Clc1ccc(CNc2cncc(N3CCNCC3)n2)cc1 [Example 4-C, (4-Chloro-benzyl)-(3,4,5,6-tetrahydro-2H-[1,2′]bipyrazinyl-6′-yl)-amine hydrochloride salt]
- functional behaviour at 5-HT2c [1]: acted as an antagonist

SMILES: C[C@@H]1CNCCN1c1cncc(OCc2ccccc2F)n1 [Example 1-AH, 6′-(2-Fluoro-benzyloxy)-(2R)-methyl-3,4,5,6-tetrahydro-2H-[1,2′]bipyrazinyl]
- functional behaviour at 5-HT2c [1]: acted as an antagonist

SMILES: C[C@H](Oc1cncc(N2CCNCC2)n1)c1ccccc1 [Example 1-AF, 6′-[(1S)-Phenyl-ethoxy]-3,4,5,6-tetrahydro-2H-[1,2′]bipyrazinyl]
- functional behaviour at 5-HT2c [1]: acted as an antagonist

SMILES: Cc1cc(C)cc(COc2cncc(N3CCNCC3)n2)c1 [Example 1-AA, 6′-(3,5-Dimethyl-benzyloxy)-3,4,5,6-tetrahydro-2H-[1,2′]bipyrazinyl]
- functional behaviour at 5-HT2c [1]: acted as an antagonist

SMILES: C[C@H]1CN(c2cncc(OCc3cccc(F)c3)n2)CCN1 [Example 1-AL, 6′-(3-Fluoro-benzyloxy)-(3S)-methyl-3,4,5,6-tetrahydro-2H-[1,2′]bipyrazinyl]
- functional behaviour at 5-HT2c [1]: acted as an antagonist

SMILES: CN1CCN(c2cncc(OCc3cccc(F)c3)n2)CC1 [Example 1-AT, 6′-(3-Fluoro-benzyloxy)-4-methyl-3,4,5,6-tetrahydro-2H-[1,2′]bipyrazinyl]
- functional behaviour at 5-HT2c [1]: acted as an antagonist

SMILES: Clc1cccc(COc2cncc(N3CCNCC3)n2)c1Cl [Example 1-AO, 6′-(2,3-Dichloro-benzyloxy)-3,4,5,6-tetrahydro-2H-[1,2′]bipyrazinyl]
- functional behaviour at 5-HT2c [1]: acted as an antagonist

SMILES: CN1CCN(c2cncc(OCc3cccc(Cl)c3)n2)CC1 [Example 1-AS, 6′-(3-Chloro-benzyloxy)-4-methyl-3,4,5,6-tetrahydro-2H-[1,2′]bipyrazinyl]
- functional behaviour at 5-HT2c [1]: acted as an antagonist

SMILES: COCC[C@H](CC1(C(=O)NCCCc2ccc(Cl)cc2)CCCC1)C(=O)O (as salt: sodium)
- melting point: 214 to 216 °C

SMILES: O=C1Nc2cc(Cl)c(Cl)cc2N2CCNCC12 (stereo not shown) [8,9-dichloro-2,3,4,4a-tetrahydro-1H-pyrazino[1,2-a]quinoxalin-5(6H)-one]
- time after s.c. dosing at which potentiation was significant [2]: 30 min
- time potentiation remained elevated [2]: circa 1 hr
- effect on pelvic-nerve stimulated (PNS) increases in vaginal and clitoral blood flow ([2]; anaesthetised rabbit): potent enhancer
- potentiation of pelvic nerve stimulated increases in genital blood flow ([2]; anaesthetised rabbit): circa 35%
- effect on basal genital blood flow in the absence of PNS ([2]; no pelvic nerve stimulation): no effect
- Pelvic nerve stimulated increases in vaginal blood flow ([2]; 15 min after injection): 292 Laser Doppler units
- Unstimulated vaginal blood flow ([2]; 15 min after injection): 185 Laser Doppler units
- Compound-induced potentiation of stimulated vaginal blood flow ([2]; 15 min after injection): 21%
- Pelvic nerve stimulated increases in vaginal blood flow ([2]; 30 min after injection): 325 Laser Doppler units
- Unstimulated vaginal blood flow ([2]; 30 min after injection): 162 Laser Doppler units
- Compound-induced potentiation of stimulated vaginal blood flow ([2]; 30 min after injection): 34%
- Pelvic nerve stimulated increases in vaginal blood flow ([2]; 45 min after injection): 295 Laser Doppler units
- Unstimulated vaginal blood flow ([2]; 45 min after injection): 150 Laser Doppler units
- Compound-induced potentiation of stimulated vaginal blood flow ([2]; 45 min after injection): 22%
- Pelvic nerve stimulated increases in vaginal blood flow ([2]; 60 min after injection): 325 Laser Doppler units
- Unstimulated vaginal blood flow ([2]; 60 min after injection): 127 Laser Doppler units
- Compound-induced potentiation of stimulated vaginal blood flow ([2]; 60 min after injection): 34%
- Pelvic nerve stimulated increases in vaginal blood flow ([2]; 75 min after injection): 252 Laser Doppler units
- Unstimulated vaginal blood flow ([2]; 75 min after injection): 137 Laser Doppler units
- Compound-induced potentiation of stimulated vaginal blood flow ([2]; 75 min after injection): 4%
- Pelvic nerve stimulated increases in vaginal blood flow ([2]; 90 min after injection): 247 Laser Doppler units
- Unstimulated vaginal blood flow ([2]; 90 min after injection): 132 Laser Doppler units
- Compound-induced potentiation of stimulated vaginal blood flow ([2]; 90 min after injection): 2%

SMILES: Cl.Fc1ccc(CNc2cncc(N3CCNCC3)n2)cc1 [Example 4-D, (4-Fluoro-benzyl)-(3,4,5,6-tetrahydro-2H-[1,2′]bipyrazinyl-6′-yl)-amine hydrochloride salt]
- functional behaviour at 5-HT2c [1]: acted as an antagonist

Next, values leading:

- activity at 10 μM ([1]; 10 μM): no activity
SMILES: C[C@@H]1CN(c2cncc(OCc3cccc(Cl)c3)n2)C[C@H](C)N1 [Example 1-V, 6′-(3-Chloro-benzyloxy)-(3R,5S)-dimethyl-3,4,5,6-tetrahydro-2H-[1,2′]bipyrazinyl]

- functional behaviour at 5-HT2c [1]: acted as an antagonist
SMILES: FC(F)(F)c1cc(COc2cncc(N3CCNCC3)n2)cc(C(F)(F)F)c1 [Example 1-W, 6′-(3,5-Bis-trifluoromethyl-benzyloxy)-3,4,5,6-tetrahydro-2H-[1,2′]bipyrazinyl]

- functional behaviour at 5-HT2c [1]: acted as an antagonist
SMILES: C[C@@H]1CN(c2cncc(OCc3cccc(Cl)c3)n2)CCN1 [Example 1-U, 6′-(3-Chloro-benzyloxy)-(3R)-methyl-3,4,5,6-tetrahydro-2H-[1,2′]bipyrazinyl]

- functional behaviour at 5-HT2c [1]: acted as an antagonist
SMILES: Clc1cc(Cl)cc(COc2cncc(N3CCNCC3)n2)c1 [Example 1-N, 6′-(3,5-Dichloro-benzyloxy)-3,4,5,6-tetrahydro-2H-[1,2′]bipyrazinyl]

- functional behaviour at 5-HT2c [1]: acted as an antagonist
SMILES: Clc1ccc(COc2cncc(N3CCNCC3)n2)cc1 [Example 1-R, 6′-(4-Chloro-benzyloxy)-3,4,5,6-tetrahydro-2H-[1,2′]bipyrazinyl]

- functional behaviour at 5-HT2c [1]: acted as an antagonist
SMILES: CC(Oc1cncc(N2CCNCC2)n1)c1cc(F)cc(F)c1 (stereo not shown) [Example 1-Z, 6′-[1-(3,5-Difluoro-phenyl)-ethoxy]-3,4,5,6-tetrahydro-2H-[1,2′]bipyrazinyl]
